For one assay, the system named is AMPA receptor channels. The assay can be described thus: AMPA-induced ionic fluxes on RNA-injected Xenopus oocytes (two-electrode voltage clamp). Type of assay: cell-based, rat. The following applies: 10 μmol/l compound, AMPA 100 μmol/l, n = 2. (In general: Two-electrode voltage clamp holds a large cell at a set potential and records current.)
The subject of assay [1] is formalin-induced nociception. In words: Formalin test on the rat (second phase). Type of assay: in vivo. As to conditions: late phase. The method, then:
The experiments for determining the antinociceptive action of the compounds of formula I according to the invention were performed in the formalin test on male rats (Sprague-Dawley, 150-170 g).
In the formalin test a distinction is made between the first (early) phase (0-15 min after the formalin injection) and the second (late) phase (15-60 min after the formalin injection) (D. Dubuisson, S. G. Dennis, Pain, 4, 161-174 (1977)). The early phase represents a model for acute pain as a direct reaction to the formalin injection, while the late phase is regarded as a model for persistent (chronic) pain (T. J. Coderre, J. Katz, A. L. Vaccarino, R. Melzack, Pain, vol. 52, p. 259, 1993). […]
A single subcutaneous formalin injection (50 μl, 5%) in the dorsal side of the right back paw of free-moving experimental animals induced a nociceptive reaction which is represented by the following behavioral parameters: lifting and holding of the affected paw (score 1), shaking or twitching (score 2), licking and biting (score 3). The differing modes of behavior triggered by the formalin injection were recorded continuously by observing the animals in the late phase of the formalin test, and differently weighted in an evaluation. Normal behavior, where the animal distributes its weight evenly over all four paws, was recorded as a score of 0. […]

For assay [2], the target named is T1, glycine binding site of the NMDA receptor channel (Rattus norvegicus, UniProt P35439).
T1 construct: from tissue; host or cells: rat brain cortex and hippocampus membrane homogenate (male Wistar rats)
The assay can be described thus: Receptor binding (glycine binding site of the NMDA receptor channel), (3H)-MDL 105.519 displacement on brain membrane homogenates. The following applies: for Displacement (%, 10 μmol/l): displacement of (3H)-MDL 105.519 at 10 μmol/l of substance; for Ki: rat cortex/hippocampus membranes, 1 nmol/l (3H)-MDL 105.519, mean of 3 independent experiments. The method, then: Receptor binding (glycine binding site of the NMDA receptor channel)
The tests for determining the affinity of the compounds of formula I according to the invention for the glycine binding site of the NMDA receptor channel were carried out on brain membrane homogenates (homogenate of the cortex and hippocampus areas of the brain of male rats, Wistar strain) [B. M. Baron, B. W. Siegel, B. L. Harrison, R. S. Gross, C. Hawes and P. Towers, Journal Of Pharmacology and Experimental Therapeutics, vol. 279, p. 62, 1996].
For this purpose, the cortex and hippocampus were freed without cutting from freshly removed rat brains, homogenized in 5 mmol/l TRIS acetate buffer, 0.32 mol/l sucrose, pH 7.4 (10 ml/g of fresh weight), using a Potter homogenizer (Braun/Melsungen, 10 piston strokes at 500 rpm), with ice cooling, and then centrifuged for 10 minutes at 1000 g and 4° C. The first supernatant was collected and the sediment was homogenized again with 5 mmol/l TRIS acetate buffer, 0.32 mol/l sucrose, pH 7.4 (5 ml/g of original fresh weight), using the Potter homogenizer (10 piston strokes at 500 rpm), with ice cooling, and centrifuged for 10 minutes at 1000 g and 4° C. The resulting supernatant was combined with the supernatant from the first centrifugation and centrifuged at 17,000 g for 20 minutes at 4° C. The supernatant after this centrifugation was discarded and the membrane sediment was taken up with 5 mmol/l TRIS acetate buffer, pH 8.0 (20 ml/g of original fresh weight), and homogenized with 10 piston strokes at 500 rpm.
The membrane homogenate was then incubated for 1 hour at 4° C. and centrifuged for 30 minutes at 50,000 g and 4° C. The supernatant was discarded and the centrifuge tube containing the membrane sediment was sealed with Parafilm and frozen for 24 hours at −20° C. On the following day the membrane sediment was thawed, taken up with ice-cold 5 mmol/l TRIS acetate buffer, 0.1% saponin (w/v), pH 7.0 (10 ml/g of original fresh weight), homogenized with 10 piston strokes at 500 rpm and then centrifuged for 20 minutes at 50,000 g and 4° C. The resulting supernatant was discarded and the sediment was taken up in a small volume with 5 mmol/l TRIS acetate buffer, pH 7.0 (approximately 2 ml/g of original fresh weight), and homogenized again with 10 piston strokes at 500 rpm. After determination of the protein content, the membrane homogenate was adjusted to a protein concentration of 10 mg protein/ml with 5 mmol/l TRIS acetate buffer, pH 7.0, and frozen in aliquots until tested.
For the receptor binding test, aliquots were thawed, diluted to 1:10 with 5 mmol/l TRIS acetate buffer, pH 7.0, homogenized with 10 piston strokes at 500 rpm using the Potter homogenizer (10 piston strokes at 500 rpm), with ice cooling, and centrifuged for 60 minutes at 55,000 g and 4° C. […]
In the binding test, 50 mmol/l TRIS acetate buffer, pH 7.0, was used as the buffer and 1 nmol/l (^3H)-MDL 105.519 (B. M. Baron et al., 1996) was used as the radioactive ligand. The proportion of non-specific binding was determined in the presence of 1 mmol/l glycine.
In other preparations the compounds according to the invention were added in concentration series and the displacement of the radioactive ligand from its specific binding to the glycine binding site of the NMDA receptor channel was measured. […]

Structures are written as SMILES.

With `O=C(O)C1Nc2cc(Cl)cc(Cl)c2C2C=CCC12` (centres unmarked) [Example 1, 7,9-Dichloro-3a,4,5,9b-tetrahydro-3H-cyclopenta [c]quinoline-4-carboxylic acid], the “AMPA-induced ionic fluxes Inhibition at 10 μmol/l of the compounds according to the invention” value in the assay with AMPA receptor channels is reported as 5.4% (n = 2). Besides, the “% inhibition of the formalin-induced nociception” value in assay [1] (i.p., 21.5 mg/kg) is on record as 64.5%.
A word on the Ki: it is a measure of affinity in units of concentration, obtained from inhibition or displacement. The low end stands for higher affinity, the high end for lower affinity. As to `O=C(O)C1Nc2ccc(Cl)cc2C2C=CCC12` (centres unmarked) [Example 2, 8-Chloro-3a,4,5,9b-tetrahydro-3H-cyclopenta [c]quinoline-4-carboxylic acid], in assay [2], the “Displacement (%, 10 μmol/l)” value is given as 100% and the Ki stood at 300 nM.
Regarding `O=C([O-])C1Nc2cc(Cl)cc(Cl)c2C2CCCC12.[Na+]` (centres unmarked) [Example 54, 7,9-Dichloro-2,3,3a,4,5,9b-hexahydro-1H-cyclopenta [c]quinoline-4-carboxylate; sodium salt], the “Displacement (%, 10 μmol/l)” value in assay [2] was 97%.
Consider `O=C([O-])C1Nc2cc(Cl)cc(Cl)c2C2C=CCC12.[Na+]` (centres unmarked) [Example 55, 7,9-Dichloro-3a,4,5,9b-tetrahydro-3H-cyclopenta [c]quinoline-4-carboxylate; sodium salt], for which, in assay [2], the “Displacement (%, 10 μmol/l)” value was found to be 90% and the Ki came to 350 nM. Besides, in assay [1] (i.v., 68.1 mg/kg), the “% inhibition of the formalin-induced nociception” value is recorded as 56%.

Source of the values: patent US20040224969A1, “Salts of substituted 1,2,3,4-tetrahydroquinoline-2-carboxylic acid compounds” (Gruenenthal GmbH, priority 2001, published 2004).
